Counter-ions that a name gives are not always drawn. A value given as a limit tells only on which side of the number the result lay.

The values that follow come from patent US10611760B2, “Therapeutic compounds as inhibitors of the orexin-1 receptor” (C4X Discovery Limited, priority 2014, dated 2020).

What all share (assay type): cell-based
Assay [1] concerns the target T1, hOX1R (Homo sapiens, UniProt O43613).
T1 sequence (O43613 1-425): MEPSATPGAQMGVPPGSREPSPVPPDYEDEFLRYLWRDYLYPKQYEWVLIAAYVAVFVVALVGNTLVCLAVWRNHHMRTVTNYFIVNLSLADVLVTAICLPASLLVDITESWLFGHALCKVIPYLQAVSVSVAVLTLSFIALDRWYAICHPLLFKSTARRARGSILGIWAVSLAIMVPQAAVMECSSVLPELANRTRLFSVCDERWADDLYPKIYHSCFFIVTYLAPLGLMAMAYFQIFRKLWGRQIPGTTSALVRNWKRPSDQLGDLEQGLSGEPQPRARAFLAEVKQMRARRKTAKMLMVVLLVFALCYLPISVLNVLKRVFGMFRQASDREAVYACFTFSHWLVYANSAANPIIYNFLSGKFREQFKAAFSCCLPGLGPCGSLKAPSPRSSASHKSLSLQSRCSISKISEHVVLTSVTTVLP
The experiment in a line: Intracellular calcium measurements using stable-replicating cells, Method B (CHO cells, FLIPR Tetra), OX1. As to conditions: orexin A at EC75, read-out: pIC50 OX1 (converted). How it is done: (§1) Intracellular Calcium Measurements Using Stable-replicating Cells:
(§2) Human OX1 or human OX2 receptor expressing CHO cells are plated into 384 well black, clear bottom, CellBIND plates at a seeding density of 10,000 cells/75 μL growth media. The seeded plates are incubated at 37° C. in air supplemented with 5% CO2 overnight.
(§3) The next day media is removed and replaced with 30 μL/well of cell loading buffer (a vial of Calcium 5 is solubilized in 20 mL of assay buffer) and the cells incubated for 1 hr at 37° C. The serially diluted test compounds (10 μL/well) are added to the cell plate by the FLIPR Tetra and the addition is monitored for 5 mins by the instrument. The cell plate is then removed and incubated for additional 25 mins in a humidified incubator at […] prior to being placed back into the FLIPR Tetra. Finally 10 μL of orexin A in assay buffer +0.1% (w/v) bovine serum albumin is dispensed by the FLIPR Tetra at an EC75 concentration determined for each assay run. Fluorescence is measured at excitation and emission wavelengths of 485 nm and 525 nm respectively and data analyzed using GraphPad Prism for the EC75 value of orexin A and Aplus to determine an IC50 value for each test compound.
A general note: Calcium flux is commonly read through the fluorescence of an indicator in the cells.

Assay [2] addresses T1, hOX1R. The experiment in a line: Intracellular calcium measurements using division-arrested cells, OX1. As to conditions: agonist orexin A at 2×EC50, * = single experiment, otherwise average of at least two, read-out: pIC50 OX1 (converted). The protocol:
(§4) Intracellular Calcium Measurements Using Division-arrested Cells (Table 1):
(§5) Test compounds are prepared as 10 mM stock solutions in DMSO, then serially diluted in half log concentrations with DMSO followed by dilution with assay buffer (HBSS (Sigma-Aldrich, H8264) containing 20 mM HEPES (Sigma-Aldrich, H4034), 0.1% (w/v) bovine serum albumin and adjusted to pH 7.4) to a top final assay concentration of 10 μM.
(§6) Human OX1 (CT-A474) and human OX2 (CT-A475) receptor-expressing division-arrested cells are plated into 384 well black, clear bottom, cell-bind plates at a seeding density of 10,000 cells/50 μL growth media. The seeded plates are incubated at 37° C. in air supplemented with 5% CO2 for 16 hrs.
(§7) The media is removed and replaced with 30 μL/well of cell loading buffer (a vial of Calcium 5 is solubilized in 22 mL of assay buffer to which a freshly prepared 250 mM solution of probenecid in 1:1 1M NaOH to assay buffer (200 μL) is added) and the cells incubated for 1 hr at 37° C. The serially diluted test compounds (10 μL/well) are added to the plate, which is then incubated for 10 mins and placed in a FlexStation III reader.

Assay [3] deals with T2, hOX2R (Homo sapiens, UniProt O43614).
T2 sequence (O43614 1-444): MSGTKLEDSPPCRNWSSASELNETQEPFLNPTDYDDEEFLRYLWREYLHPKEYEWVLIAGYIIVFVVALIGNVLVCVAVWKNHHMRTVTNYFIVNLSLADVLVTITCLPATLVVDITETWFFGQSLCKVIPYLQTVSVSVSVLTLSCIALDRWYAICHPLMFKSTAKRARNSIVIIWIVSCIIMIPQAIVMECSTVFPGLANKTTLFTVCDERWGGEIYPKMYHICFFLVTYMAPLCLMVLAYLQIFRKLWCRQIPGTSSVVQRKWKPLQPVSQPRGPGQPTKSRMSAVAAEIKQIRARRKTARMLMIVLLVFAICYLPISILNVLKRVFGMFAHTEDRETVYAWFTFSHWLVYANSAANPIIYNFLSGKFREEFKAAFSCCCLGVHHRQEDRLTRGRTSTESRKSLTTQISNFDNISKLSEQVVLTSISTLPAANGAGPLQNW
The experiment in a line: Intracellular calcium measurements using division-arrested cells, OX2. As to conditions: agonist orexin B at 2×EC50, * = single experiment, otherwise average of at least two, read-out: pIC50 OX2 (converted). How it is done: as §4, §5, §6, §7

The target of assay [4] is T2, hOX2R. The experiment in a line: Intracellular calcium measurements using stable-replicating cells, Method B (CHO cells, FLIPR Tetra), OX2. Particulars: orexin A at EC75, read-out: pIC50 OX2 (converted). The protocol: as §1, §2, §3

For `CC[C@@H](CNc1ccc(Cl)cn1)N(C)C(=O)c1cc(Br)ccc1-n1nccn1` [Example 19, (S)-5-bromo-N-(1-((5-chloropyridin-2-yl)amino)butan-2-yl)-N-methyl-2-(2H-1,2,3-triazol-2-yl)benzamide], the IC50 is 1.58 nM on hOX1R [1], 25.1 nM on hOX1R [2], 1580 nM on hOX2R [3] and 501 nM at hOX2R [4].
On to `CC[C@@H](CNc1ccc(Cl)cn1)N(C)C(=O)c1cc(OC(F)(F)F)ccc1-n1nccn1` [Example 20, (S)—N-(1-((5-chloropyridin-2-yl)amino)butan-2-yl)-N-methyl-2-(2H-1,2,3-triazol-2-yl)-5-(trifluoromethoxy)benzamide], for which the results for the IC50 at hOX1R [1], at hOX1R [2] and on hOX2R [4] were 100 nM, 200 nM and 3160 nM, respectively.
Take `CC[C@@H](CNc1ccc(Cl)cn1)N(C)C(=O)c1cc(C(F)(F)F)cnc1-n1nccn1` [Example 24, (S)—N-(1-((5-chloropyridin-2-yl)amino)butan-2-yl)-N-methyl-2-(2H-1,2,3-triazol-2-yl)-5-(trifluoromethyl)nicotinamide]: the IC50 on hOX1R [1] was 3980 nM; on hOX1R [2], 2000 nM; at hOX2R [3], more than 10000 nM; on hOX2R [4], more than 10000 nM.
For `CC[C@@H](CNc1cnc2ccccc2n1)N(C)C(=O)c1nc(C)ccc1-n1nccn1` [Example 65, (S)—N,6-dimethyl-N-(1-(quinoxalin-2-ylamino)butan-2-yl)-3-(2H-1,2,3-triazol-2-yl)picolinamide], the IC50 was 2 nM at hOX1R [1] and 794 nM on hOX2R [4].
As to `Cc1ccc(-n2nccn2)c(C(=O)N(C)[C@H](CNc2ncc(C(F)(F)F)cn2)C(C)C)n1` [Example 66, (S)—N,6-dimethyl-N-(3-methyl-1-((5-(trifluoromethyl)pyrimidin-2-yl)amino)butan-2-yl)-3-(2H-1,2,3-triazol-2-yl)picolinamide], the IC50 at hOX1R [1] is 12.6 nM; on hOX2R [4], more than 631 nM.
`Cc1ccc(-n2nccn2)c(C(=O)N(C)[C@H](CNc2ncc3ccccc3n2)C(C)C)n1` [Example 68, (S)—N,6-dimethyl-N-(3-methyl-1-(quinazolin-2-ylamino)butan-2-yl)-3-(2H-1,2,3-triazol-2-yl)picolinamide]: the IC50 on hOX1R [1] is 15.8 nM; at hOX2R [4], more than 1000 nM.
For `Cc1ccc(-n2nccn2)c(C(=O)N(C)[C@H](CNc2ccc(C(F)(F)F)cn2)C(C)C)n1` [Example 69, (S)—N,6-dimethyl-N-(3-methyl-1-((5-(trifluoromethyl)pyridin-2-yl)amino)butan-2-yl)-3-(2H-1,2,3-triazol-2-yl)picolinamide], in that order: 3.16 nM and 3160 nM.
As for `CC[C@@H](CNc1ccc(C(F)(F)F)cn1)N(CC)C(=O)c1nc(C)ccc1-n1nccn1` [Example 71, (S)—N-ethyl-6-methyl-3-(2H-1,2,3-triazol-2-yl)-N-(1-((5-(trifluoromethyl)pyridin-2-yl)amino)butan-2-yl)picolinamide], the IC50 on hOX1R [1] is 1 nM; on hOX2R [4] it was 316 nM.
As to `CC[C@@H](CNc1ncc(C(F)(F)F)cn1)N(CC)C(=O)c1nc(C)ccc1-n1nccn1` [Example 73, (S)—N-ethyl-6-methyl-3-(2H-1,2,3-triazol-2-yl)-N-(1-((5-(trifluoromethyl)pyrimidin-2-yl)amino)butan-2-yl)picolinamide], the IC50 on hOX2R [4] was more than 1000 nM.
On to `Cc1ccc(-n2nccn2)c(C(=O)N(C)[C@H](CNc2ncc(C(F)(F)F)cn2)C2CC2)n1` [Example 74, (S)—N-(1-cyclopropyl-2-((5-(trifluoromethyl)pyrimidin-2-yl)amino)ethyl)-N,6-dimethyl-3-(2H-1,2,3-triazol-2-yl)picolinamide], for which the IC50 was 2000 nM at hOX1R [1] and more than 10000 nM on hOX2R [4].
Regarding `CC[C@@H](CNc1ccc2ncccc2n1)N(C)C(=O)c1nc(C)ccc1-n1nccn1` [Example 76, (S)—N-(1-((1,5-naphthyridin-2-yl)amino)butan-2-yl)-N,6-dimethyl-3-(2H-1,2,3-triazol-2-yl)picolinamide], the IC50 is 25.1 nM on hOX1R [1] and more than 2000 nM on hOX2R [4].
As for `CC[C@@H](CN(C)c1ncc(C(F)(F)F)cn1)N(C)C(=O)c1nc(C)ccc1-n1nccn1` [Example 82, (S)—N,6-dimethyl-N-(1-(methyl(5-(trifluoromethyl)pyrimidin-2-yl)amino)butan-2-yl)-3-(2H-1,2,3-triazol-2-yl)picolinamide], the IC50 is 7.94 nM at hOX1R [1] and more than 10000 nM at hOX2R [4].
Regarding `CC[C@@H](CN(CCOC)c1ncc(C(F)(F)F)cn1)N(C)C(=O)c1nc(C)ccc1-n1nccn1` [Example 83, (S)—N-(1-((2-methoxyethyl)(5-(trifluoromethyl)pyrimidin-2-yl)amino)butan-2-yl)-N,6-dimethyl-3-(2H-1,2,3-triazol-2-yl)picolinamide], the IC50 was 12.6 nM at hOX1R [1] and more than 1000 nM on hOX2R [4].
As for `CC[C@@H](CNc1ccc(Cl)cn1)N(C)C(=O)c1cc(OC)c(C)cc1-n1nccn1` [Example 87, (S)—N-(1-((5-chloropyridin-2-yl)amino)butan-2-yl)-5-methoxy-N,4-dimethyl-2-(2H-1,2,3-triazol-2-yl)benzamide], the IC50 at hOX1R [1] was 3.98 nM.
As to `CC[C@@H](CNc1ncc(C(F)(F)F)cn1)N(C)C(=O)c1nc(C)ccc1-n1cncn1` [Example 89, (S)—N,6-dimethyl-3-(1H-1,2,4-triazol-1-yl)-N-(1-((5-(trifluoromethyl)pyrimidin-2-yl)amino)butan-2-yl)picolinamide formic acid salt], the IC50 is 2000 nM at hOX1R [1] and more than 10000 nM at hOX2R [4].
For `CC[C@@H](CNc1ncc(C(F)(F)F)cn1)N(C)C(=O)c1nc(C)ccc1-n1cccn1` [Example 90, (S)—N,6-dimethyl-3-(1H-pyrazol-1-yl)-N-(1-((5-(trifluoromethyl)pyrimidin-2-yl)amino)butan-2-yl)picolinamide formic acid salt], the IC50 is 2 nM at hOX1R [1] and more than 1000 nM on hOX2R [4].
In the same order, the values of `CC[C@@H](CNc1ncc(C(F)(F)F)cn1)N(C)C(=O)c1c(F)cccc1-n1nccn1` [Example 91, (S)-2-fluoro-N-methyl-6-(2H-1,2,3-triazol-2-yl)-N-(1-((5-(trifluoromethyl)pyrimidin-2-yl)amino)butan-2-yl)benzamide] are 25.1 nM and more than 7940 nM.
`CC[C@@H](CNc1ncc(C(F)(F)F)cn1)N(C)C(=O)c1nc(OC)ccc1-n1nccn1` [Example 92, (S)-6-methoxy-N-methyl-3-(2H-1,2,3-triazol-2-yl)-N-(1-((5-(trifluoromethyl)pyrimidin-2-yl)amino)butan-2-yl)picolinamide]: at hOX1R [1], the IC50 was 31.6 nM.
